According to PubChem BioAssay (NCI):
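Step 1: Grow cells in 96-well plates. Step 2: Expose to compound for 48 hours at 5 concentrations. Step 3: Interpolate endpoints linearly; if unreached, use highest concentration. The concentration for 50% growth inhibition is given as GI50. TGI denotes the concentration required for complete inhibition of growth.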

Tests used:
Assay in all cases: NCI tumour cell line growth inhibition, 48 h
[1] = test system: NCI-H522 lung
[2] = test system: A498 renal
[3] = test system: SF-268 CNS
[4] = test system: SF-539 CNS
[5] = test system: SNB-19 CNS
[6] = test system: COLO 205 colon
[7] = test system: HS 578T breast
[8] = test system: MALME-3M melanoma
[9] = test system: SNB-75 CNS
[10] = test system: BT-549 breast
[11] = test system: LOX IMVI melanoma
[12] = test system: SK-MEL-28 melanoma
[13] = test system: MDA-MB-435
[14] = test system: IGROV1 ovarian
[15] = test system: SF-295 CNS
[16] = test system: SK-MEL-2 melanoma
[17] = test system: OVCAR-3 ovarian
[18] = test system: KM12 colon
[19] = test system: SN12C renal
[20] = test system: NCI-H226 lung
[21] = test system: A549 NSCLC
[22] = test system: UACC-62 melanoma
[23] = test system: HT29 colon
[24] = test system: SK-OV-3 ovarian
[25] = test system: RXF 393 renal
[26] = test system: SR leukemia
[27] = test system: T-47D breast
[28] = test system: SW-620 colon
[29] = test system: CAKI-1 renal
[30] = test system: HOP-92 NSCLC
[31] = test system: OVCAR-8 ovarian
[32] = test system: OVCAR-5 ovarian
[33] = test system: UACC-257 melanoma
[34] = test system: DU-145 prostate
[35] = test system: HCC-2998 colon
[36] = test system: SK-MEL-5 melanoma
[37] = test system: NCI-H23 lung
[38] = test system: EKVX NSCLC
[39] = test system: OVCAR-4 ovarian
[40] = test system: MCF7 breast
[41] = test system: MOLT-4 leukemia
[42] = test system: RPMI-8226 leukemia
[43] = test system: U251 CNS
[44] = test system: NCI/ADR-RES ovarian
[45] = test system: TK-10 renal
[46] = test system: NCI-H460 lung
[47] = test system: K-562 leukemia
[48] = test system: MDA-MB-231 breast
[49] = test system: PC-3 prostate
[50] = test system: HL-60(TB) leukemia
[51] = test system: CCRF-CEM leukemia
[52] = test system: HCT-116 colon
[53] = test system: HOP-62 NSCLC
[54] = test system: HCT-15 colon
[55] = test system: UO-31 renal
[56] = test system: 786-0 renal
[57] = test system: ACHN renal
[58] = test system: M14 melanoma

Structure (SMILES): Cc1ccc(CN(C)c2ccc(CO)c(Cl)c2)cc1
- GI50 [1]: 17.2 µM
- TGI [1]: 65.6 µM
- GI50 [2]: 0.056 µM
- TGI [2]: 0.196 µM
- GI50 [3]: 30.8 µM
- TGI [3]: > 100 µM
- GI50 [4]: 30 µM
- TGI [4]: > 94.1 µM
- GI50 [5]: 34.8 µM
- TGI [5]: > 100 µM
- GI50 [6]: 3.24 µM
- TGI [6]: 10.5 µM
- GI50 [7]: 26.2 µM
- TGI [7]: > 100 µM
- GI50 [8]: 19.7 µM
- TGI [8]: 59 µM
- GI50 [9]: 17.2 µM
- TGI [9]: 78.2 µM
- GI50 [10]: 13.2 µM
- TGI [10]: 37 µM
- GI50 [11]: 17.9 µM
- TGI [11]: > 52.7 µM
- GI50 [12]: 15.6 µM
- TGI [12]: 53.6 µM
- GI50 [13]: 29.8 µM
- TGI [13]: > 100 µM
- GI50 [14]: 0.363 µM
- TGI [14]: 2.52 µM
- GI50 [15]: 3.37 µM
- TGI [15]: > 76 µM
- GI50 [16]: 8.26 µM
- TGI [16]: 31 µM
- GI50 [17]: 3.06 µM
- TGI [17]: 12.5 µM
- GI50 [18]: 21.3 µM
- TGI [18]: 72 µM
- GI50 [19]: 14 µM
- TGI [19]: 49.5 µM
- GI50 [20]: 0.119 µM
- TGI [20]: 0.257 µM
- GI50 [21]: 3.69 µM
- TGI [21]: 27.7 µM
- GI50 [22]: 0.282 µM
- TGI [22]: 2.71 µM
- GI50 [23]: 6.07 µM
- TGI [23]: 30 µM
- GI50 [24]: 5.8 µM
- TGI [24]: 30.3 µM
- GI50 [25]: 6.9 µM
- TGI [25]: 26.5 µM
- GI50 [26]: 23.7 µM
- TGI [26]: > 86.8 µM
- GI50 [27]: 0.367 µM
- TGI [27]: 2.4 µM
- GI50 [28]: 5.23 µM
- TGI [28]: > 100 µM
- GI50 [29]: 2.4 µM
- TGI [29]: 45.8 µM
- GI50 [30]: 1.98 µM
- TGI [30]: 36.7 µM
- GI50 [31]: 14.3 µM
- TGI [31]: > 80.1 µM
- GI50 [32]: 0.446 µM
- TGI [32]: 2.48 µM
- GI50 [33]: 0.344 µM
- TGI [33]: 1.31 µM
- GI50 [34]: 22.6 µM
- TGI [34]: > 100 µM
- GI50 [35]: 13.9 µM
- TGI [35]: > 60.6 µM
- GI50 [36]: 5.44 µM
- TGI [36]: 18 µM
- GI50 [37]: 12.6 µM
- TGI [37]: > 80 µM
- GI50 [38]: 18.6 µM
- TGI [38]: 79.7 µM
- GI50 [39]: 1.52 µM
- TGI [39]: 13.7 µM
- GI50 [40]: 0.676 µM
- TGI [40]: 12 µM
- GI50 [41]: 25.4 µM
- TGI [41]: > 79.7 µM
- GI50 [42]: 10.2 µM
- TGI [42]: > 65.2 µM
- GI50 [43]: 3.92 µM
- TGI [43]: 39.9 µM
- GI50 [44]: 16.1 µM
- TGI [44]: 63.2 µM
- GI50 [45]: 0.194 µM
- TGI [45]: 0.938 µM
- GI50 [46]: 1.17 µM
- TGI [46]: 11.5 µM
- GI50 [47]: 6.05 µM
- TGI [47]: > 100 µM
- GI50 [48]: 21.9 µM
- TGI [48]: > 100 µM
- GI50 [49]: 24.2 µM
- TGI [49]: 97.5 µM
- GI50 [50]: 15.1 µM
- TGI [50]: 56 µM
- GI50 [51]: 33.7 µM
- TGI [51]: > 100 µM
- GI50 [52]: 0.395 µM
- TGI [52]: 11.6 µM
- GI50 [53]: 3.44 µM
- TGI [53]: 29.9 µM
- GI50 [54]: 13.4 µM
- TGI [54]: > 100 µM
- GI50 [55]: 6.54 µM
- TGI [55]: 75.9 µM
- GI50 [56]: 11.8 µM
- TGI [56]: 31.9 µM
- GI50 [57]: 23.6 µM
- TGI [57]: > 100 µM
- GI50 [58]: 20.9 µM
- TGI [58]: > 65.1 µM
